Reference: patent US7759389B2, “Chroman derivatives and uses thereof” (Roche Palo Alto LLC, priority 2004, dated 2010)
Counter-ions that a name gives are not always drawn.

Legend:
[1] = target: T1, recombinant human 5-HT6 receptor (Homo sapiens, UniProt P50406); test: Radioligand binding, competition for [3H]LSD in HEK293 cell membranes; conditions: [3H]LSD displacement, pH 7.4, 37° C., 75 min, read-out: pKi for 5-HT6 (converted)
T1 construct: expressed in transfected cells; host or cells: HEK293
T1 sequence (P50406 whole entry): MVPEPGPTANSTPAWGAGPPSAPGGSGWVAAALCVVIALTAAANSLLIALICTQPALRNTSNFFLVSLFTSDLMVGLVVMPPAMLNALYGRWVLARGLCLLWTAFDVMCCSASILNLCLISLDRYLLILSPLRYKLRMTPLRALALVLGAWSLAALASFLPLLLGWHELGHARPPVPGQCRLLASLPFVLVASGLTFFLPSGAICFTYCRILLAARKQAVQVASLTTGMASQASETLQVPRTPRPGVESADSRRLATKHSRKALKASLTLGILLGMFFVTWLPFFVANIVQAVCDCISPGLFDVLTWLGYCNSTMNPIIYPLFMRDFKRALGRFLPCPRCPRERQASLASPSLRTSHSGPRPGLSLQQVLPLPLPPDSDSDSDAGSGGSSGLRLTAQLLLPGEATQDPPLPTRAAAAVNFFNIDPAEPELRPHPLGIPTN
Experimental: (§1) The binding activity of compounds of this invention in vitro was determined as follows. Duplicate determinations of 5-HT6 ligand affinity were made by competing for binding of [^3H]LSD in cell membranes derived from HEK293 cells stably expressing recombinant human 5-HT6 receptor. Duplicate determinations of 5-HT2A ligand affinity were made by competing for binding of [^3H]Ketanserin (3-(2-(4-(4-fluorobenzoyl)piperidinol)ethyl)-2,4(1H,3H)-quinazolinedione) in cell membranes derived from CHO-K1 cells stably expressing recombinant human 5-HT2A receptor. Membranes were prepared from HEK 293 cell lines by the method described by Monsma et al., Molecular Pharmacology, Vol. 43 pp. 320-327 (1993), and from CHO-K1 cell lines as described by Bonhaus et al., Br J Pharmacol. June; 115(4):622-8 (1995).
(§2) For estimation of affinity at the 5-HT6 receptor, all determinations were made in assay buffer containing 50 mM Tris-HCl, 10 mM MgSO4, 0.5 mM EDTA, 1 mM ascorbic acid, pH 7.4 at 37° C., in a 250 microliter reaction volume. […]
(§3) Assay tubes containing [^3H] […] LSD or [^3H]Ketanserin were determined as radioactive counts per minute using Packard TopCount.
(§4) Displacement of [^3H]LSD or [^3H]Ketanserin from the binding sites was quantified by fitting concentration-binding data to a 4-parameter logistic equation: […]

[2] = target: T2, recombinant human 5-HT2A receptor (Homo sapiens, UniProt P28223); test: Radioligand binding, competition for [3H]Ketanserin in CHO-K1 cell membranes; conditions: [3H]Ketanserin displacement, pH 7.4, 32° C., 60 min, read-out: pKi for 5-HT2A (converted)
T2 construct: expressed in transfected cells; host or cells: CHO-K1
T2 sequence (P28223 whole entry): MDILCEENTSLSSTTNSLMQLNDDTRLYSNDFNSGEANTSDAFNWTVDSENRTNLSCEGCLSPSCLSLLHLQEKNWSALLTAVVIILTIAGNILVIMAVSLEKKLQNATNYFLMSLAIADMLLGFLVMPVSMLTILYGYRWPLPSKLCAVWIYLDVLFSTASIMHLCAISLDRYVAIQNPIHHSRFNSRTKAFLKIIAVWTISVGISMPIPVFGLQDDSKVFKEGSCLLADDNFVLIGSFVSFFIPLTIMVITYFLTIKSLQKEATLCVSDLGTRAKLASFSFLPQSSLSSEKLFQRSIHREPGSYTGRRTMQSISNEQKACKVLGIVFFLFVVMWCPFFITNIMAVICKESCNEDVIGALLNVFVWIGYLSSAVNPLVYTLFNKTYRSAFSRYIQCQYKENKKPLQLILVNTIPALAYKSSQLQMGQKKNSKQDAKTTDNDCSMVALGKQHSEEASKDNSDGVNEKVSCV
Experimental: as §1, §2, §3, §4

Row | Ki [1] [µM] | Ki [2] [µM] | melting point [°C] | SMILES
1 | ~0.000724 | ~0.0204 | – | NCC1CCOc2cc(S(=O)(=O)c3ccccc3)ccc21 (stereo not drawn) [C-(7-Benzenesulfonyl-chroman-4-yl)-methylamine]
2 | – | – | 158.1 to 159.8 | CNCC1CCOc2cc(S(=O)(=O)c3ccccc3)ccc21 (stereo not drawn) (as salt: HCl)
